Experimental findings from patent publication US6124242A, “Herbicidal compositions and processes based on ferrodoxin:NADP reductase inhibitors” (BASF Aktiengesellschaft, priority 1998, dated 2000) are described below.

The target of one assay is T1, ferredoxin:NADP reductase (Spinacia oleracea, UniProt P00455).
T1 construct: from spinach leaves--obtainable from Sigma, Germany; purchased Sigma, Germany; host or cells: spinach leaves
T1 sequence (P00455 56-369): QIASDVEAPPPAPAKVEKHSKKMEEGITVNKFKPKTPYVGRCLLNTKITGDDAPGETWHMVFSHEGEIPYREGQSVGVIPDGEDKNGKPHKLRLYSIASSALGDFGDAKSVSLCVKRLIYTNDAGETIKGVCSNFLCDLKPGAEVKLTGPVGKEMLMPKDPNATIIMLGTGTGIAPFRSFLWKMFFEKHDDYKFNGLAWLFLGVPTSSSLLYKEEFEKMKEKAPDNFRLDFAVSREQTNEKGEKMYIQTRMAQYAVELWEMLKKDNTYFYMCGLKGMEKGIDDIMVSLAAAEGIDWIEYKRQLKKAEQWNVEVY
Description: Inhibition of diaphorase reaction of ferredoxin:NADP reductase.
Details: not given
Format: biochemical, spinach. The protocol:
(§1) Ferredoxin:NADP reductase not only catalyzes the physiologically relevant, reversible reaction of NADP with ferrecoxin (ferredoxin reductase activity), but also the NADPH-dependent reduction of potassium hexacyanoferrate(III) (diaphorase activity). Methods for measuring these reactions are described in the literature (Meth. Enzymol., Volumes 23 and 69).
The diaphorase activity can be determined by incubating, for example, chloroplasts or isolated ferredoxin:NADP reductase (Sigma) in 100 mM Tris/HCl buffer, pH 8.2+0.5 mM potassium hexacyanoferrate(III)+0.5 mM NADPH or an NADPH-regenerating system such as, for example, 0.5 mM NADP+2.5 mM glucose-6-phosphate+1 unit/ml glucose-6-phosphate dehydrogenase at 25° C. and monitoring the decrease in absorption at 420 nm. An incubation mixture without ferredoxin:NADP reductase may be used as blank value.
(§2) The action of a test substance can be tested by dissolving the substance in a suitable solvent such as, for example, dimethyl sulfoxide and pipetting an aliquot of the solution to the above-described incubation mixture. A corresponding aliquot of the pure solvent may be used as control. The action of the test substance can be determined by comparing the absorption changes of the respective incubation batches.
Broadly, the inhibition is the drop in the measured response relative to a control, in per cent. For `CCCCCCCCCCCCCCCCS(=O)(=O)c1ccc(S(=O)(=O)O)cc1C(=O)NN=c1sc2ccc(S(=O)(=O)O)cc2n1C` [B.3], the inhibition at 50 µM was determined as 102%.

The same assay, now with this note: 50 μM; mean +/- standard deviation of 6 experiments; control (DMSO) 31.3, blank without enzyme 9.4.
For the compound `CCCCCCCCCCCCCCCCS(=O)(=O)c1ccc(S(=O)(=O)O)cc1C(=O)NN=c1sc2ccc(S(=O)(=O)O)cc2n1C` [B.3], the “AU/min *10^-3 (diaphorase reaction, decrease in absorption at 420 nm)” value was 9.0 +/- 1.4 AU/min *10^-3.

Another assay concerns the target T1, ferredoxin:NADP reductase. Description: Inhibition of ferredoxin reductase reaction of ferredoxin:NADP reductase. It is filed as biochemical, spinach. The settings on record: 1 mM. The protocol:
as §1
The ferredoxin reductase activity can be determined by incubating, for example, chloroplast extracts or isolated ferredoxin:NADP reductase (Sigma) in 100 mM Tris/HCl buffer, pH 7.8+0.2 mM NADPH+0.65 mg/ml cytochrome C+0.1 mg/ml ferredoxin at 25° C. and measuring the change in the absorption at 550 nm, or the difference in absorption change at 550 nm and 540 nm. An incubation mixture without ferredoxin can be used as blank value.
as §2
On to `CCCCCCCCCCCCCCCCS(=O)(=O)c1ccc(S(=O)(=O)O)cc1C(=O)NN=c1sc2ccc(S(=O)(=O)O)cc2n1C` [B.3], for which the inhibition at 1000 µM was 90%.

The same assay, now with this note: 1 mM; mean +/- standard deviation of 6 experiments; control (DMSO) 0.692, blank without ferredoxin 0.027.
Turning to `CCCCCCCCCCCCCCCCS(=O)(=O)c1ccc(S(=O)(=O)O)cc1C(=O)NN=c1sc2ccc(S(=O)(=O)O)cc2n1C` [B.3], the “E (550 -540) (ferredoxin reductase reaction)” value is on record as 0.093 +/- 0.026.

Another assay has as its system duckweed Lemnna paucicostata. The experiment in a line: Growth of duckweed (increase in leaf area). It is filed as in vivo. The settings on record: use concentration 10^-4 M; leaf area after 8-10 days; read-out: Growth inhibition (% of the control). Here is the method:
The effect of the herbicidal compounds according to the invention on the growth of duckweed can be seen from the following test results: p The duckweed Lemnna paucicostata was grown under sterile conditions in 250 ml glass vessels containing 100 ml of inorganic nutrient solution supplemented with 1% sucrose, as described by Grossmann et al., Pesticide Science 35 (1992), 283-289. At the beginning of the test, 150 μl of a solution of active ingredient in acetone (stock solution: 100-fold concentrated) were pipetted into Petri dishes (diameter 6 cm, height 1.5 cm; Greiner, Frickenhausen) containing 15 ml of nutrient solution (without added sucrose). Only the solvent component of the active ingredient solution was added to the nutrient solution for the control tests. Then, 4 Lemna plants were introduced into each dish, the dishes were covered with lids and incubated in a controlled-environment cabinet at 25° C. under permanent light conditions (Phillips TL white neon tubes, approx. 40 μmol m^-2 s^-1; λ=400-750 nm). After 8-10 days, the increase in leaf area was determined using an imaging apparatus (Imago, Compulog Computer Syst., Boblingen) as growth parameter, and this was used to calculate the % growth inhibition relative to the control.
In the case of `CCCCCCCCCCCCCCCCOc1ccc(C(=O)O)cc1S(=O)(=O)NN=c1sc2ccc(S(=O)(=O)O)cc2n1C` [A.28], the inhibition at 100 µM came to 60%.
Consider `CCCCCCCCCCCCCCCCS(=O)(=O)c1ccc(S(=O)(=O)NN=c2sc3cc(S(=O)(=O)O)ccc3n2C)cc1NC(C)=O` [A.46], for which the inhibition at 100 µM came to 56%.
As for `CCCCCCCCCCCCCCCCS(=O)(=O)Nc1cccc(S(=O)(=O)NN=c2sc3ccc(S(=O)(=O)C(F)F)cc3n2C)c1` [A.47], the inhibition at 100 µM is 18%.
`CCCCCCCCCCCCCCCCS(=O)(=O)N(C)c1cccc(S(=O)(=O)NN=c2sc3ccc(S(=O)(=O)O)cc3n2C)c1` [A.48]: the inhibition at 100 µM turned out to be 42%.
As to `CCCCCCCCCCCCCCCCS(=O)(=O)c1ccc(S(=O)(=O)NN=c2sc3ccc(S(=O)(=O)O)cc3n2C)cc1C(=O)O` [A.49], the inhibition at 100 µM amounted to 77%.
With `CCCCCCCCCCCCCCCCNS(=O)(=O)c1ccc(S(=O)(=O)NN=c2sc3ccccc3n2C)cc1` [A.51], the inhibition at 100 µM stood at 29%.
For the compound `CCCCCCCCCCCCCCCCNS(=O)(=O)c1ccc(S(=O)(=O)NN=c2sc3ccc(S(=O)(=O)O)cc3n2C)cc1` [A.52], the inhibition at 100 µM came to 89%.
For `CCCCCCCCCCCCCCCCNS(=O)(=O)c1ccc(S(=O)(=O)NN=c2sc3ccc(S(=O)(=O)C(F)F)cc3n2C)cc1` [A.55], the inhibition at 100 µM stood at 28%.
`CCCCCCCCCCCCCCCCS(=O)(=O)c1ccc(S(=O)(=O)O)cc1C(=O)NN=c1sc2ccc(S(=O)(=O)O)cc2n1C` [B.3]: the inhibition at 100 µM came to 96%.

The same assay, now with this note: use concentration 10^-5 M; leaf area after 8-10 days; read-out: Growth inhibition (% of the control).
In the case of `CCCCCCCCCCCCCCCCOc1ccc(C(=O)O)cc1S(=O)(=O)NN=c1sc2ccc(S(=O)(=O)O)cc2n1C` [A.28], the inhibition at 10 µM was found to be 42%.
As for `CCCCCCCCCCCCCCCCS(=O)(=O)c1ccc(S(=O)(=O)NN=c2sc3cc(S(=O)(=O)O)ccc3n2C)cc1NC(C)=O` [A.46], the inhibition at 10 µM worked out at 33%.
For the compound `CCCCCCCCCCCCCCCCS(=O)(=O)N(C)c1cccc(S(=O)(=O)NN=c2sc3ccc(S(=O)(=O)O)cc3n2C)c1` [A.48], the inhibition at 10 µM came out at 34%.
On the same count and under the same terms, with `CCCCCCCCCCCCCCCCS(=O)(=O)c1ccc(S(=O)(=O)NN=c2sc3ccc(S(=O)(=O)O)cc3n2C)cc1C(=O)O` [A.49] the figure was 49%; with `CCCCCCCCCCCCCCCCNS(=O)(=O)c1ccc(S(=O)(=O)NN=c2sc3ccc(S(=O)(=O)O)cc3n2C)cc1` [A.52], 12%; with `CCCCCCCCCCCCCCCCS(=O)(=O)c1ccc(S(=O)(=O)O)cc1C(=O)NN=c1sc2ccc(S(=O)(=O)O)cc2n1C` [B.3], 66%.

The assay is the same for the next values; noted with them: use concentration 10^-6 M; leaf area after 8-10 days; read-out: Growth inhibition (% of the control).
Regarding `CCCCCCCCCCCCCCCCOc1ccc(C(=O)O)cc1S(=O)(=O)NN=c1sc2ccc(S(=O)(=O)O)cc2n1C` [A.28], the inhibition at 1 µM was determined as 26%.
With `CCCCCCCCCCCCCCCCS(=O)(=O)c1ccc(S(=O)(=O)NN=c2sc3cc(S(=O)(=O)O)ccc3n2C)cc1NC(C)=O` [A.46], the inhibition at 1 µM turned out to be 13%.
Turning to `CCCCCCCCCCCCCCCCS(=O)(=O)N(C)c1cccc(S(=O)(=O)NN=c2sc3ccc(S(=O)(=O)O)cc3n2C)c1` [A.48], the inhibition at 1 µM was found to be 28%.
Take `CCCCCCCCCCCCCCCCS(=O)(=O)c1ccc(S(=O)(=O)NN=c2sc3ccc(S(=O)(=O)O)cc3n2C)cc1C(=O)O` [A.49]: the inhibition at 1 µM was determined as 19%.
As for `CCCCCCCCCCCCCCCCS(=O)(=O)c1ccc(S(=O)(=O)O)cc1C(=O)NN=c1sc2ccc(S(=O)(=O)O)cc2n1C` [B.3], the inhibition at 1 µM came to 54%.
